Test results reported in patent US20240002379A1, “ASYMMETRIC CONJUGATE COMPOUNDS” (Pheon Therapeutics Ltd., priority 2016, published 2024).

Assays:
Assay type in all cases: cell-based
Settings in all cases: MTT assay, 72 hour incubation
SW48 cell line = assay: MTT cytotoxicity assay, SW48
Experimental: (§1) Tumor cell lines were maintained in RPMI1640 medium supplemented with 10% heat-inactivated fetal bovine serum, 2 mM L-glutamine and 1 mM sodium pyruvate. 1800 cells per well were seeded in a volume of 180 μl in a 96-well flat bottom polystyrene plate. The cells were allowed to adhere overnight at 37° C. in a CO2 incubator. Ligands were initially formulated in DMSO, and stocks stored at −80° C. They were then further formulated at lox concentration in RPMI1640 medium. 20 ul of diluted samples were added into each treatment well. On each plate, blank wells with no cells, and untreated wells containing cells, were included. Plates were then cultured at 37° C. in a CO2 incubator for 72 hrs. Cytotoxicity was evaluated using a tetrazolium salt-based assay, the MTT assay. After 72 hours, the supernatant was removed from each well and 200 μl of a sterile filtered 500 μg/ml MTT solution in water added to each well. The plates were then incubated at 37° C. in a CO2 incubator for 4 hrs. The supernatant was then removed and the formazan crystals formed solubilized by adding 150 μl of DMSO to each well. The plate was then read on a plate reader at 540 nm, and percentage cell survival calculated as follows: ((mean absorbance treated wells at concentration x−mean absorbance blank wells)[…](mean absorbance untreated wells at concentration x−mean absorbance blank wells))×100. Data were plotted as concentration in nM vs. % cell survival in Microsoft Excel, and IC50 values (concentration where cell survival is reduced by a half) were determined from the graph.

SW620 cell line = assay: MTT cytotoxicity assay, SW620
Experimental: as §1

LIM1215 cell line = assay: MTT cytotoxicity assay, LIM1215
Experimental: as §1

COc1cc2c(cc1OCc1cccc(CC(=O)N3C[C@@H](C)c4c3cc(O)c3ccccc43)c1)NC(=O)[C@@H]1CCCCN1C2=O [Compound 143, (S)-3-((3-(2-((S)-5-Hydroxy-1-methyl-1,2-dihydro-3H-benzo[e]indol-3-yl)-2-oxoethyl)benzyl)oxy)-2-methoxy-7,8,9,10-tetrahydrobenzo[e]pyrido[1,2-a][1,4]diazepine-6,12(5H,6aH)-dione]
Not active: Cytotoxicity SW48 (72 hrs) (SW48 cell line) | Cytotoxicity SW620 (72 hours) (SW620 cell line) | Cytotoxicity LIM1215 (72 hours) (LIM1215 cell line)
